One data set in a line: in vivo. The arrangement: species or system 394-NOD SCID mice. As to conditions: 394-NOD SCID, mouse, 1.1 MBq. How it is done: Static PET/CT images of control group animals were acquired (n = 5) 1 h after injection of [^68Ga]Ga-DOTA-CCK-66 using a preclinical PET/CT scanner (Genisys 8 PET/CT; Sofie Biosciences, Dulles, VA, USA), according to a published procedure. PET image reconstruction was carried out using a maximum-likelihood expectation maximization with 60 iterations. Correction for photon attenuation of all images was performed. Acquisition parameters for CT applications were 40 kVp and […]. Acquired data were analyzed using OsiriX Imaging Software (version 3.9.3; Pixmeo SARL, Bernex, Switzerland).

In another data set the test system is AR42J tumor. The data set is described as follows: Single-dose treatment study (tumor volume, survival). The data set is classed as in vivo, 394-NOD SCID mice. As to conditions: for Tumor volume: single injection on day 0: [225Ac] 37 kBq (178 pmol), caliper, mean±SD, n=5. How it is done:
AR42J cells (2 × 10^6 cells, 100 µL suspended in Matrigel) were subcutaneously inoculated into the right shoulder region of mice. When tumors reached 30 to 290 mm^3 (14 to 17 d after inoculation), […] into 3 groups (5 per group). On day 0 of the experiment mice received a single-dose injection of either [^68Ga]Ga-DOTA-CCK-66 (1.1 MBq, PET/CT imaging, control cohort), [^177Lu]Lu-DOTA-CCK-66 (37 MBq) or [^225Ac]Ac-DOTA-CCK-66 (37 kBq). Tumor volume (caliper measurements, length^2 × width/2) and body weight of all animals were subsequently monitored twice a week. Animals were sacrificed after reaching one of the end-point criteria (weight loss of more than 20%, tumor volume of more than 2,000 mm^3, ulceration of the tumor, respiratory distress, or change of behavior).

The record followed here is PMC11732879, “Preclinical evaluation of ^225Ac-labeled minigastrin analog DOTA-CCK-66 for Targeted Alpha Therapy” (European Journal of Nuclear Medicine and Molecular Imaging, 2024).

*1 amine or outer side, *2 acyl side, *3 side chain or, on linkers, in order; H or OH if unused. Where a SMILES comes first, the peptide text is derived from it. [ ]: non-standard residue; d: D form. The star is where a group is joined. DOTA = O=C(O)CN1CCN(CC(=O)O)CCN(CC(=O)*)CCN(CC(=O)O)CC1; d(γGlu) = O=C(O)[C@@H](CCC(=O)[*:2])N[*:1]; 1Nal = N[C@@H](Cc1cccc2ccccc12)C(=O)O; NMeNle = CCCC[C@H](NC)C(=O)O; PEG4 = NCCOCCOCCOCCOCCC(=O)O

`CCCC[C@@H](C(=O)N[C@@H](CC(=O)O)C(=O)N[C@@H](Cc1cccc2ccccc12)C(N)=O)N(C)C(=O)[C@H](Cc1c[nH]c2ccccc12)NC(=O)CCOCCOCCOCCOCCNC(=O)CC[C@@H](NC(=O)CN1CCN(CC(=O)O)CCN(CC(=O)O)CCN(CC(=O)O)CC1)C(=O)O` [[^68Ga]Ga-DOTA-CCK-66, metal not drawn] ({DOTA-d(γGlu)-PEG4}-W[NMeNle]D[1Nal]-NH2): the SUV at 1 h in “in vivo” turned out to be 2.02 ± 0.77 SUV.
As for `CCCC[C@@H](C(=O)N[C@@H](CC(=O)O)C(=O)N[C@@H](Cc1cccc2ccccc12)C(N)=O)N(C)C(=O)[C@H](Cc1c[nH]c2ccccc12)NC(=O)CCOCCOCCOCCOCCNC(=O)CC[C@@H](NC(=O)CN1CCN(CC(=O)O)CCN(CC(=O)O)CCN(CC(=O)O)CC1)C(=O)O` [[^225Ac]Ac-DOTA-CCK-66] [metal not drawn] ({DOTA-d(γGlu)-PEG4}-W[NMeNle]D[1Nal]-NH2), in the data set on AR42J tumor (54 d versus 37 d, p = 0.0003), the “fold increase in mean survival, 225Ac-TAT compared to 177Lu-RLT” value is given as 1.5 fold. For the same molecule, the Tumor volume in the data set with AR42J tumor (day 0, [177Lu] 37 MBq (1.7 nmol), [68Ga] control cohort 1.1 MBq (29 pmol)) is on record as 150±80 mm^3; with AR42J tumor (day 3, [177Lu] 37 MBq (1.7 nmol), [68Ga] control cohort 1.1 MBq (29 pmol)), 170±110 mm^3; with AR42J tumor (day 7, [177Lu] 37 MBq (1.7 nmol), [68Ga] control cohort 1.1 MBq (29 pmol)), 130±60 mm^3; in the data set on AR42J tumor (day 10, [177Lu] 37 MBq (1.7 nmol), [68Ga] control cohort 1.1 MBq (29 pmol)) it was 100±60 mm^3; in the data set with AR42J tumor (day 14, [177Lu] 37 MBq (1.7 nmol)), 100±50 mm^3; with AR42J tumor (day 17, [177Lu] 37 MBq (1.7 nmol)), 100±50 mm^3. The Tumor volume with AR42J tumor (day 21, [177Lu] 37 MBq (1.7 nmol)) was 90±60 mm^3; with AR42J tumor (day 24, [177Lu] 37 MBq (1.7 nmol)), 130±70 mm^3; in the data set with AR42J tumor (day 28, [177Lu] 37 MBq (1.7 nmol)), 130±80 mm^3; in the data set with AR42J tumor (day 31, [177Lu] 37 MBq (1.7 nmol)), 160±90 mm^3; in the data set on AR42J tumor (day 35) it was 240±130 mm^3; in the data set on AR42J tumor (day 38), 470±280 mm^3. Moreover, the results for the Tumor volume in the data set on AR42J tumor (day 42), in the data set on AR42J tumor (day 45) and in the data set with AR42J tumor (day 49) were 740±430 mm^3, 1,040±690 mm^3 and 1,600±830 mm^3, respectively. This molecule returned a Mean survival in the data set with AR42J tumor (single dose on day 0: [225Ac] 37 kBq, [177Lu] 37 MBq, [68Ga] 1.1 MBq (control group), n=5 per group) of 54 ± 6 days. Moreover, the “fold increase in mean survival versus control group” value with AR42J tumor (single dose: [225Ac] 37 kBq, [177Lu] 37 MBq, control 12 ± 3 d) was 4.5 fold.
